Experimental data: US20170348306A1, “METHODS OF TREATING CANCER” (GLAXOSMITHKLINE LLC, priority 2011, published 2017)

How the values were obtained:
Assay in all cases: Cell proliferation assay (6 days, CellTiter-Glo)
Format in all cases: cell-based
BC-1 = conditions: Homo sapiens, BC1, 144 h, AIDS-BCBL, EZH2 WT, read-out: AVERAGE GROWTH IC50
Text: (§1) Thus, Example 22 and Table 6 better reflect the inhibition of HZH2 inhibitors on cell lines, e.g. the lymphoma cell lines. DLBCL cell lines were the most sensitive to EZH2 inhibition (FIG. 11a). […] Evaluation of GSK126 in additional lymphoma cell lines and extensive genomic and epigenomic characterization will be required to fully elucidate the determinants of sensitivity among lymphoma subtypes.
(§2) Biochemical assays utilized the 5-member PRC2 complex (human Flag-EZH2, EED, SUZ12, AEBP2, RbAp48) containing either WT or mutant EZH2, [^3H-]SAM and the indicated peptide substrate; reactions were incubated for 30 minutes. Global histone modification levels were determined by ELISA or western blot methods using antibodies specific for total histone H3, H3K27me1, H3K27me2, or H3K27me3. Cell proliferation and Caspase-3/7 activity were assessed using CellTiter-Glo and Caspase-Glo 3/7 (Promega), respectively. Gene expression profiling was conducted using Affymetrix Human Genome U133 Plus 2.0 microarrays. Differentially-expressed probe sets were determined by fitting the data to a linear model using the limma statistical package (http://www.bioconductor.org) and carrying out pair-wise contrasts of treated versus control. Significant probe sets were filtered for detection (log2 signal threshold of 8), an average fold-change >2 or <−2, or >1.5 or <−1.5, where indicated, with p-values adjusted for multiple testing correction by FDR (Benjamini Hochberg)<0.1. H3K27me3 ChIP reads were aligned using Bowtie (56). H3K27me3 enrichment peaks were identified using SICER (57) with optimized parameters. A custom PERL script was utilized to quantify the average basal H3K27me3 ChIP-seq tag density across gene sets. All in vivo studies were conducted after review by the Institutional Animal Care and Use Committee at GSK and in accordance with the GSK Policy on the Care, Welfare and Treatment of Laboratory Animals. GSK126 and vehicle were administered to mice intraperitoneally. Two-tailed t-tests were conducted assuming two samples of equal variance.
(§3) The optimal cell seeding was determined empirically for all cell lines by examining the growth of a wide range of seeding densities in a 384-well format to identify conditions that permitted proliferation for 6 days. […] Plates were incubated for 6 days at 37° C. in 5% CO2. Cells were then lysed with CellTiter-Glo (Promega) and chemiluminescent signal was detected with a TECAN Safire2 microplate reader. In addition, an untreated plate of cells was harvested at the time of compound addition (T0) to quantify the starting number of cells. CTG values obtained after the 6 day treatment were expressed as a percent of the T0 value and plotted against compound concentration.

BC-2 = conditions: Homo sapiens, 144 h, AIDS-BCBL, EZH2 WT, read-out: AVERAGE GROWTH IC50
Text: as §1, §2, §3

BC-3 = conditions: Homo sapiens, 144 h, PEL, AIDS-BCBL, EZH2 D185H (HET), read-out: AVERAGE GROWTH IC50
Text: as §1, §2, §3

CI-1 = conditions: Homo sapiens, 144 h, B-NHL, EZH2 D185H (HET), read-out: AVERAGE GROWTH IC50
Text: as §1, §2, §3

CRO-AP2 = conditions: Homo sapiens, 144 h, PEL, AIDS-BCBL, EZH2 WT, read-out: AVERAGE GROWTH IC50
Text: as §1, §2, §3

DG-75 = conditions: Homo sapiens, 144 h, BURKITT, EZH2 WT, read-out: AVERAGE GROWTH IC50
Text: as §1, §2, §3

Farage = conditions: Homo sapiens, 144 h, DLBCL, EZH2 D185H (HET), read-out: AVERAGE GROWTH IC50
Text: as §1, §2, §3

HS-SULTAN = conditions: Homo sapiens, 144 h, BURKITT, EZH2 WT, read-out: AVERAGE GROWTH IC50
Text: as §1, §2, §3

KARPAS-1106P = conditions: Homo sapiens, 144 h, MLBCL, EZH2 E744A (HET), read-out: AVERAGE GROWTH IC50
Text: as §1, §2, §3

L-428 = conditions: Homo sapiens, 144 h, HODGKIN'S, EZH2 Y641S (HET), read-out: AVERAGE GROWTH IC50
Text: as §1, §2, §3

MC116 = conditions: Homo sapiens, 144 h, B-NHL, EZH2 WT, read-out: AVERAGE GROWTH IC50
Text: as §1, §2, §3

MHH-PREB-1 = conditions: Homo sapiens, 144 h, B-NHL, EZH2 WT, read-out: AVERAGE GROWTH IC50
Text: as §1, §2, §3

RI-1 = conditions: Homo sapiens, 144 h, MCL, EZH2 WT, read-out: AVERAGE GROWTH IC50
Text: as §1, §2, §3

RPMI-6666 = conditions: Homo sapiens, 144 h, HODGKIN'S, EZH2 WT, read-out: AVERAGE GROWTH IC50
Text: as §1, §2, §3

SU-DHL-4 = conditions: Homo sapiens, 144 h, DLBCL, EZH2 Y641S (HET), Y661N (HET), read-out: AVERAGE GROWTH IC50
Text: as §1, §2, §3

SU-DHL-5 = conditions: Homo sapiens, 144 h, DLBCL, EZH2 WT, read-out: AVERAGE GROWTH IC50
Text: as §1, §2, §3

SU-DHL-8 = conditions: Homo sapiens, 144 h, DLBCL, EZH2 WT, read-out: AVERAGE GROWTH IC50
Text: as §1, §2, §3

Toledo = conditions: Homo sapiens, 144 h, DLBCL, EZH2 WT, read-out: AVERAGE GROWTH IC50
Text: as §1, §2, §3

U-2940 = conditions: Homo sapiens, 144 h, DLBCL, EZH2 WT, read-out: AVERAGE GROWTH IC50
Text: as §1, §2, §3

U-698-M = conditions: Homo sapiens, 144 h, B-NHL, EZH2 WT, read-out: AVERAGE GROWTH IC50
Text: as §1, §2, §3

WILL-2 = conditions: Homo sapiens, 144 h, DLBCL, EZH2 WT, read-out: AVERAGE GROWTH IC50
Text: as §1, §2, §3

CC[C@H](C)n1cc(C)c2c(C(=O)NCc3c(C)cc(C)[nH]c3=O)cc(-c3ccc(N4CCNCC4)nc3)cc21 [GSK126]
IC50 (BC-1): 8.29 µM | IC50 (BC-2): 4.76 µM | IC50 (BC-3): 2.22 µM | IC50 (CI-1): 4.28 µM | IC50 (CRO-AP2): 1.64 µM | IC50 (DG-75): 3.25 µM | IC50 (Farage): 1.72 µM | IC50 (HS-SULTAN): 2.27 µM | IC50 (KARPAS-1106P): 4.54 µM | IC50 (L-428): 4.7 µM | IC50 (MC116): 10.2 µM | IC50 (MHH-PREB-1): 5.3 µM | IC50 (RI-1): 7.66 µM | IC50 (RPMI-6666): 1.43 µM | IC50 (SU-DHL-4): 4.83 µM | IC50 (SU-DHL-5): 2.3 µM | IC50 (SU-DHL-8): 3.19 µM | IC50 (Toledo): 13.8 µM | IC50 (U-2940): 4.56 µM | IC50 (U-698-M): 5.6 µM | IC50 (WILL-2): 27.5 µM
